Test results taken from US3996231A, “1-Quinolinyl-pyrazolidine derivatives” (Choay S.A., priority 1973, dated 1976).
Read-outs that look alike come from different tables or passages of the source.

How the values were obtained:
[1] = Acute oral toxicity / LD50 in the mouse; settings: in vivo, po
Description: (§1) LD50 were determined in the mouse and the rat. The substance was administered to the animals by the oral route in a single dose. The behaviour of the animals was observed during the six days which followed. The statistical calculations were done by the method of Miller L. C. Tainter M. L. (Proc. Soc. Exp. Biol. Med., 1944 57 261/264/264).

mouse = assay: Acute oral toxicity / LD50 in the mouse; settings: for Mortality: in vivo, po
Description: as §1

in vivo = settings: rat, in vivo, po
Description: as §1

rat = assay: in vivo
Description: as §1

all the animals = assay: AD50 (active dose 50) and therapeutic index as shown by the above-mentioned tests; format: in vivo; settings: for ED50: read-out: AD50 (active dose 50)
[2] = test system: transmission of painful stimuli; assay: Caroll and Lim test; format: in vivo, rat; settings: 50 mg/kg by mouth
Source text: This test (Arch. Int. Pharmacodyn., 1960, CXXV, 383-403) enables the study of the effect of analgesics on the transmission of painful stimuli, by means of electrodes placed on the tail of the rat and connected to a "stimulator" constituted by a source adapted to supply an alternating current of 60 Hz frequency at increasing voltages. The three voltages (thresholds S1, S2, S3) at which there are successively obtained:
Threshold S1 : characteristic retraction movement of the tail
Threshold S3 : a cry which continues after interrupting the stimulation.
The analgesic substances administered to a group of 15 rats have the effect of increasing the values of these thresholds. This is what have been observed with the substance according to the invention, administered by mouth at the dose of 50 mg/kg. The average increases, expressed as % with respect to the average corresponding thresholds observed in 15 animals of a control series, are indicated in Table VIII below.

[3] = test system: Arthritis by Freund adjuvant; assay: Arthritis by Freund adjuvant; format: in vivo, rat; settings: 50 mg/kg per day
Description: The injection of 0.5 ml of Freund adjuvant (product sold by the Difco Company) into the plantar pad of the rear foot of a rat of 90 days, causes a chronic polyarthritis.
This injection causes an inflammation first localised in the injected foot, then generalised. The blocking of the articulations appears between the 10th and the 20th days.
In a series of rats thus treated there are selected, 10 days after the injection of the Freund adjuvant, 50 rats having complete blockage of the articulations.

Solubility = format: physicochemical
Experimental pleurisy = Experimental pleurisy in the rat (terebenthine essence); format: in vivo, Wistar rats; settings: 6 hours
Description: The injection of terebenthine essence (0.1 ml) into the bottom of the diaphragmatic sack of the rat causes in the hours which follow a vascular parietal reaction which leads to the formation of an inflammatory type pleurisy.
The average volume of the pleural exudate (taken up after opening the thoracic cage of the previously sacrificed animals) increases gradually in control animals to reach 6 to 7 ml towards the sixth hour, this volume remaining constant to the forty-eighth hour. The exudate is accompanied by the diapedesis of the formed elements of the blood and by the increase in the mobile cells of the conjunctive tissue. Five days after the injection of the irritant agent, the cellular phase gives place to a tissular reaction which leads to the building of dense granulation tissue and to the production of adhesions between the lungs and the thoracic wall.
The action of an anti-inflammatory substance is manifested by a reduction in the volume of the pleural exudate measured for example 6 hours after the injection of the irritant agent and by a reduction in the intensity of the later tissular reaction.
Experiments in Wistar rats of 200 g divided into batches in the following manner were carried out:
1 control batch of 15 animals
batch of 60 animals (batch 3) also divided into subgroups, each of them comprising 20 animals which have been treated with the doses indicated in Table V
6 batches of 15 animals, respectively treated with anti-inflammatory substances for comparison identified above.
The substances to be tested were administered by mouth 30 minutes before the injection of the irritant substance. The doses of these known anti-inflammatories correspond to their normal experimental doses. The results indicated in the Table V correspond to the reductions expressed as % of the average volumes of pleural exudate taken up 6 hours after the irritant injection and observed in the treated animals relative to the average volumes measured in the controls.

[4] = comparison batch, 25 mg/kg by mouth
[5] = comparison batch, 50 mg/kg by mouth
[6] = relative to the values of the invention's substance

CCCCC1C(=O)NN(c2ccnc3cc(Cl)ccc23)C1=O (stereo not drawn) [1-(7'-chloro 4'-quinolinyl) 3,5-dioxo 4-n-butyl pyrazolidine]
LD50 at 144 h [1]: ~2000 mg/kg
mortality at 144 h ([1]; 1000 mg/kg): 16%
mortality at 144 h ([1]; 2000 mg/kg): 50%
mortality at 144 h ([1]; 4000 mg/kg): 100%
Mortality (mouse; 200 mg/kg): no death
Mortality (mouse; 500 mg/kg): no death
LD50 at 144 h (in vivo): > 4000 mg/kg
mortality at 144 h (in vivo; 4000 mg/kg): 5%
Mortality (rat; in vivo, po, 200 mg/kg): no death
Mortality (rat; in vivo, po, 500 mg/kg): no death
Mortality (rat; oral single dose, 1 g/kg): no death
Mortality (rat; oral single dose, 2 g/kg): no death
ED50 (all the animals; in all the animals, determined under similar conditions): ~50 mg/kg
therapeutic index (all the animals; in vivo): notably higher than that of phenylbutazone
Average increase of threshold S1 ([2]; 11/2 hour): 0
Average increase of threshold S1 ([2]; 30 minutes): 0
Average increase of threshold S1 ([2]; 1 hour): 0
Average increase of threshold S1 ([2]; 2 hours): 0
Animals with at least partial deblocking of the articulations ([3]; after 5 days of treatment): at least 25%
Animals with at least partial deblocking of the articulations ([3]; after 10 days of treatment): ≥ 50%
Animals with at least partial deblocking of the articulations ([3]; after 15 days of treatment): ≥ 65%
solubility in alcohol (Solubility; alcohol): soluble
solubility in solutions of potassium or of sodium carbonate (Solubility; solutions of potassium or of sodium carbonate): soluble
solubility in water (Solubility; water): insoluble
Reduction of average volume of pleural exudate (Experimental pleurisy; Batch No. 1, 12.5 mg/kg by mouth): -24%
Reduction of average volume of pleural exudate (Experimental pleurisy; Batch No. 1, 25 mg/kg by mouth): -35%
Reduction of average volume of pleural exudate (Experimental pleurisy; Batch No. 1, 50 mg/kg by mouth): -45%
Reduction of average volume of pleural exudate (Experimental pleurisy; Batch No. 2, 12.5 mg/kg by mouth): -23%
Reduction of average volume of pleural exudate (Experimental pleurisy; Batch No. 2, 25 mg/kg by mouth): -38%
Reduction of average volume of pleural exudate (Experimental pleurisy; Batch No. 2, 50 mg/kg by mouth): -55%
Reduction of average volume of pleural exudate (Experimental pleurisy; Batch No. 3, 12.5 mg/kg by mouth): -18%
Reduction of average volume of pleural exudate (Experimental pleurisy; Batch No. 3, 25 mg/kg by mouth): -28%
Reduction of average volume of pleural exudate (Experimental pleurisy; Batch No. 3, 50 mg/kg by mouth): -45%

Cc1cccc(Nc2ccccc2C(=O)O)c1C [Ac. Mefenamic, Mefanamic acid, reference compound]
Reduction of average volume of pleural exudate (Experimental pleurisy; [4]): -30%

O=C(O)c1ccccc1Nc1cccc(C(F)(F)F)c1 [Ac. flufenamic, Flufenamic acid, reference compound]
Reduction of average volume of pleural exudate (Experimental pleurisy; [4]): -32%

O=C(O)c1cccnc1Nc1cccc(C(F)(F)F)c1 [Ac. niflumic, Niflumic acid, reference compound]
Reduction of average volume of pleural exudate (Experimental pleurisy; [5]): -30%

COc1ccc2c(c1)c(CC(=O)O)c(C)n2C(=O)c1ccc(Cl)cc1 [Indomethacine, reference compound]
Reduction of average volume of pleural exudate (Experimental pleurisy; comparison batch, 5 mg/kg by mouth): -33%

CCCCC1C(=O)N(c2ccccc2)N(c2ccccc2)C1=O [Phenylbutazone, reference compound]
LD50 (in words) (mouse; [6]): much lower than the above-indicated values
LD50 (in words) (rat; [6]): much lower than the above-indicated values
ED50 (all the animals): ~100 mg/kg
Reduction of average volume of pleural exudate (Experimental pleurisy; comparison batch, 100 mg/kg by mouth): -49%

Clofezone [reference compound]
Reduction of average volume of pleural exudate (Experimental pleurisy; [5]): -37%
